For data set [1] the following is noted: cited from earlier work.
Data set [2] is described as follows: Salt screening (XRPD, chiral purity of hits). Type of data set: physicochemical. The method, then: Based on the pKa of I-1 free form, 23 counter ions were selected as salt/cocrystal forming agents. Methanol, acetone and isopropyl acetate were used as screening solvents. 1.0 equivalent of selected counter ions/coformers was applied for salt screening. Slurry equilibration, slow evaporation and anti-solvent addition were used as crystallization methods. In total, about 70 screening experiments were conducted.
About 50 mg of I-1 Form A were added to a suitable amount of solvent and 1.0 equivalent of counter ions were added under stirring at 50° C. for 2 hours and then at 25° C. for at least 12 hours. MeOH, acetone and IPAc were used as screening solvents.
Obtained suspensions were taken out and centrifuged. Solids obtained were analyzed by XRPD and salt screening results were summarized in Table 5.1, Table 5.2, and Table 5.3.

A short description of data set [3]: Light and glassware influence on racemization of II-1. Type of data set: physicochemical. As for the experimental part: The effect of glassware surface pH and light on II-1 racemization was evaluated.
The nature of data set [4]: Polymorph screening (equilibration, anti-solvent, slow evaporation, slow cooling, temperature cycling, heating-cooling; XRPD and SFC). Type of data set: physicochemical. The following applies: for ee %(SFC): 6 days. As for the experimental part: This polymorph screening program of compound I-1 free form was performed with two batches of the pure enantiomer. Both batches are crystalline and is assigned as Form A. The polymorphic behaviors of the enantiomer were investigated by equilibration at 25° C. and 50° C., equilibration under a temperature cycle, crystallization from hot saturated solutions by slow cooling, slow evaporation, precipitation by addition of anti-solvent, and DSC heating-cooling cycle experiments. Relative stability of identified polymorphs was investigated by competitive slurry experiments.
About 50 mg of I-1 Form A was weighed into a 2 mL glass vial and equilibrated in suitable amount of solvents (pretreated by molecular sieves) at 25° C. for 2 weeks with a stirring plate and with protection from light. Obtained suspensions were filtered with 0.45 μm nylon membrane and the solid parts (wet cake) were investigated by XRPD. When differences were observed, additional investigations were performed (e.g. DSC, TGA, ^1H-NMR, SFC).
About 50 mg of I-1 Form A was weighed into 2 mL glass vials and equilibrated in suitable amount of solvents (pretreated by molecular sieves) at 50° C. for 10 days with a stirring plate and with protection from light. Obtained suspensions were filtered with 0.45 μm nylon membrane and the solid parts (wet cake) were investigated by XRPD. When differences were observed, additional investigation was performed (e.g. DSC, TGA, ^1H-NMR, SFC).
I-1 Form A was dissolved in a good solvent. […] The solvents used were pretreated by molecular sieve. Precipitates were collected by filtration. The solid part (wet cake) was investigated by XRPD. […] When differences were observed, additional investigations were performed (e.g. DSC, TGA, ^1H-NMR, SFC).
Based on approximate solubility results, I-1 Form A was dissolved in suitable amount of solvents (pretreated by molecular sieves). Obtained solutions were filtered by 0.45 μm nylon filter. […] Solid residues were examined for their polymorphic form. When differences were observed, additional investigations were performed (e.g. DSC, TGA, ^1H-NMR, SFC).
Approximate 50 mg of batch I-1 Form A were dissolved in the minimal amount of selected solvents (without pretreatment by molecular sieves) at 50° C. Obtained solutions were filtered by 0.45 μm nylon filter. […] Precipitates were collected by filtration. The solid parts (wet cake) were investigated by XRPD. When differences were observed, additional investigations were performed (e.g. DSC, TGA, ^1H-NMR, SFC). When no precipitation was obtained or only a few solids were obtained, the solutions were placed at 5° C. for crystallization.
About 50 mg of I-1 Form A was equilibrated in different solvents (pretreated by molecular sieves) under a temperature cycle between 5° C. to 50° C. at a heating/cooling rate of 0.2° C./min for 10 cycles and with protection from light. After 10 cycles, precipitates were collected at 5° C. by filtration. The solid parts (wet cake) were investigated by XRPD. When differences were observed, additional investigations were performed (e.g. DSC, TGA, 1H-NMR, SFC).
Polymorphic behavior of I-1 Form A was investigated by two different heating-cooling cycles of DSC. Cycle 1:30° C. to 280° C. at 10° C./min; 280° C. to −20° C. at 20° C./min; reheat to 300° C. at 10° C./min. Cycle 2:30° C. to 280° C. at 10° C./min; 280° C. to-20° C. at 2° C./min; reheat to 300° C. at 10° C./min.

Where [5] appears, read: crystalline hits of salt screening, listed as I-2 Form A.
[6] abbreviates: crystalline hit dried at 50° C. for 21 h.
[7] abbreviates: crystalline hits of salt screening, listed as I-5 Form A.
Where [8] appears, read: crystalline hits of salt screening, listed as I-5 Form B.
Where [9] appears, read: equilibration of II-1 in 1,4-dioxane, 50° C.
The mark [10] stands for this setting: crystalline hits of salt screening, listed as III-2 Form A.
[11] abbreviates: crystalline hits of salt screening, listed as III-2 Form B.
[12] abbreviates: crystalline hits of salt screening, listed as III-6 Form A.

Each structure is given as a SMILES string. Marks after values point to notes of the source that are not given here.

As to `O=C(O)CC(O)(CC(=O)O)C(=O)O` [Citric acid], the “pKa(s)” value in data set [1] was 3.12, 4.76, 6.39.

Regarding `N#Cc1c(-c2cc(NC(=O)c3cc(F)cc(C(F)(F)F)c3)c3c(c2)C(=O)N[C@H]3c2cc(F)ccc2Cl)ccc2ncnn12` [Compound I-2], the “Salt screening result (slurry crystallization)” value in data set [2] (1.0 equiv. HCl, Isopropyl acetate) is on record as “+ (Salt hits)”. Besides, in data set [2] (setting [5]), the “Chiral purity (by HPLC)” value is listed as 89.7% and the “Crystallinity (By XRPD)” value was “Low”. In addition, the “Chiral purity of salt screening solid” value in data set [2] (slurry, 1.0 equiv. HCl, Isopropyl acetate) is “Chiral purity: 89.7%”.

Regarding `N#Cc1c(-c2cc(NC(=O)c3cc(F)cc(C(F)(F)F)c3)c3c(c2)C(=O)N[C@H]3c2cc(F)ccc2Cl)ccc2ncnn12` [Compound I-5], in data set [2] (1.0 equiv. naphthalene-1,5-disulfonic acid, Acetone/MTBE), the “Salt screening result (anti-solvent)” value is “+ (I-5 Form B) (Salt hits)”. In addition, the “Chiral purity of salt screening solid” value in data set [2] (anti-solvent, 1.0 equiv. naphthalene-1,5-disulfonic acid, Acetone/MTBE) is “Chiral purity: 88.3%”. Besides, the “Chiral purity (by HPLC)” value in data set [2] (setting [6]) is “C. for 21 h: 100%”; in data set [2] (setting [7]), 100% dried at 50°; in data set [2] (setting [8]), 88.3%. In addition, the results for the “Crystallinity (By XRPD)” value in data set [2] (setting [6]), in data set [2] (setting [7]) and in data set [2] (setting [8]) were “low crystallinity”, “Medium crystallinity” and “Medium”, respectively.

On to `N#Cc1c(-c2cc(NC(=O)c3cc(F)cc(C(F)(F)F)c3)c3c(c2)C(=O)N[C@@H]3c2cc(F)ccc2Cl)ccc2ncnn12` [II-1, (S)-N-(3-(2-chloro-5-fluorophenyl)-6-(5-cyano-[1,2,4]triazolo[1,5-a]pyridin-6-yl)-1-oxoisoindolin-4-yl)-3-fluoro-5-(trifluoromethyl)benzamide], for which the racemization in solution result was “Noticeable racemization” in data set [3] (basic glassware, promoted by light); “no significant racemization” in data set [3] (neutral and acidic glassware, absence and presence of light, up to 13 days). The “XRPD (6 days)” value in data set [4] (setting [9]) was “II-1 Form B”; in data set [4] (equilibration of II-1 in THF/water(85:15, v/v) a.w. 0.9, 25° C.), “II-1 Form C (include the”. Moreover, the “ee %(SFC)” value is on record as “ee %(SFC): −99.48%*” in data set [4] (setting [9]); “ee %(SFC): −99.24%*” in data set [4] (equilibration of II-1 in ACN/water(80:20, v/v), 50° C.); “ee %(SFC): −99.78%*” in data set [4] (equilibration of II-1 in EtOH/water(50:50, v/v), 50° C.); “ee %(SFC): −99.66%*” in data set [4] (equilibration of II-1 in Methanol, 50° C.); “ee %(SFC): −99.34%*” in data set [4] (equilibration of II-1 in THF/water(85:15, v/v), 25° C.).

Turning to `N#Cc1c(-c2cc(NC(=O)c3cc(F)cc(C(F)(F)F)c3)c3c(c2)C(=O)NC3c2cc(F)ccc2Cl)ccc2ncnn12` (stereo not shown) [III-2], the “Salt screening result (slurry crystallization)” value in data set [2] (1.0 equiv. HCl, ACN (second block of table)) was “+ (III-2 Form B) (Salt hits)”; in data set [2] (1.0 equiv. HCl, Acetone), “+ (III-2 Form A) (Salt hits)”; in data set [2] (1.0 equiv. HCl, Acetone (second block of table)), “+ (III-2 Form A) (Salt hits)”. The “Chiral purity (by HPLC)” value in data set [2] (setting [10]) turned out to be 30.8%; in data set [2] (setting [11]) it was 20.3%. Besides, the “Crystallinity (By XRPD)” value in data set [2] (setting [10]) is given as “Medium”; in data set [2] (setting [11]), “Low”. Moreover, the “Chiral purity of salt screening solid” value in data set [2] (slurry, 1.0 equiv. HCl, ACN (second block of table)) is recorded as “Chiral purity: 20.2%”; in data set [2] (slurry, 1.0 equiv. HCl, Acetone), “Chiral purity: 30.8%”; in data set [2] (slurry, 1.0 equiv. HCl, Acetone (second block of table)) it was “Chiral purity: 45.4%”.

Regarding `N#Cc1c(-c2cc(NC(=O)c3cc(F)cc(C(F)(F)F)c3)c3c(c2)C(=O)NC3c2cc(F)ccc2Cl)ccc2ncnn12` (stereo not shown) [III-6], the “Salt screening result (slurry crystallization)” value in data set [2] (1.0 equiv. naphthalene-2-sulfonic acid, Acetone) is reported as “+ (Salt hits)”. For the same compound, in data set [2] (setting [12]), the “Chiral purity (by HPLC)” value turned out to be 43.2% and the “Crystallinity (By XRPD)” value was “low”. The “Chiral purity of salt screening solid” value in data set [2] (slurry, 1.0 equiv. naphthalene-2-sulfonic acid, Acetone) is reported as “Chiral purity: 43.2%”.

For the compound `O=S(=O)(O)c1ccc2ccccc2c1` [Naphthalene-2-sulfonic acid], the “pKa(s)” value in data set [1] is listed as 0.17.

Source of the values: patent publication US20260125374A1, “PI3K-ALPHA INHIBITORS AND METHODS OF MAKING AND USING THE SAME” (Relay Therapeutics, Inc., priority 2021, published 2026).
